Where “and” joins values, the source holds several entries; their conditions need not be identical. Equal entries are not always repeated.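 Tested at 5 concentrations; 48 h exposure; 96-well plates; endpoints linearly interpolated, else capped at highest concentration. Here, GI50 denotes the concentration required for 50% inhibition of growth. At the TGI there is no net growth.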
Experiments:
Test in all cases: NCI-60 cell line screen, 48 h
SK-MEL-28 melanoma = test system: SK-MEL-28 melanoma
CAKI-1 renal = test system: CAKI-1 renal
UACC-257 melanoma = test system: UACC-257 melanoma
SNB-19 CNS = test system: SNB-19 CNS
NCI-H460 lung = test system: NCI-H460 lung
SF-268 CNS = test system: SF-268 CNS
HT29 colon = test system: HT29 colon
UACC-62 melanoma = test system: UACC-62 melanoma
CCRF-CEM leukemia = test system: CCRF-CEM leukemia
NCI/ADR-RES ovarian = test system: NCI/ADR-RES ovarian

| Structure (SMILES) | TGI (SK-MEL-28 melanoma) | TGI (CAKI-1 renal) | TGI (UACC-257 melanoma) | TGI (SNB-19 CNS) | TGI (NCI-H460 lung) | TGI (SF-268 CNS) | TGI (HT29 colon) | TGI (UACC-62 melanoma) | TGI (CCRF-CEM leukemia) | TGI (NCI/ADR-RES ovarian) | GI50 (SK-MEL-28 melanoma) | GI50 (CAKI-1 renal) | GI50 (UACC-257 melanoma) | GI50 (SNB-19 CNS) | GI50 (NCI-H460 lung) | GI50 (SF-268 CNS) | GI50 (HT29 colon) | GI50 (UACC-62 melanoma) | GI50 (CCRF-CEM leukemia) | GI50 (NCI/ADR-RES ovarian) |
| --- | --- | --- | --- | --- | --- | --- | --- | --- | --- | --- | --- | --- | --- | --- | --- | --- | --- | --- | --- | --- |
| CCSc1nc(-c2cccs2)nc2ccc(I)cc12 | > 100 µM | > 100 µM | > 100 µM | > 100 µM | > 100 µM | > 100 µM | > 100 µM | > 100 µM | > 100 µM | > 100 µM | – | – | – | – | – | – | – | – | – | – |
| CC1C(=O)C(C)C(c2ccco2)N(N=O)C1c1ccco1 (centres undefined) | > 100 µM | > 100 µM | > 100 µM | > 100 µM | > 100 µM | > 100 µM | > 100 µM | > 100 µM | > 100 µM | > 100 µM | – | – | – | – | – | – | – | – | – | – |
| C[n+]1c2ccccc2c(CNC(CS)C(=O)O)c2ccccc21 (centres undefined) | – | 70.5 µM | > 100 µM | > 100 µM | 47.9 µM | > 100 µM | > 100 µM | 29.6 µM | 62.4 µM | – | – | – | – | – | – | – | – | – | – | – |
| O=C(NC(Cc1ccc(I)cc1)C(=O)O)c1ccc(Cl)cc1 (centres undefined) | > 100 µM | > 100 µM | > 100 µM | > 100 µM | > 100 µM | > 100 µM | > 100 µM | > 100 µM | > 100 µM | > 100 µM | – | – | – | – | – | – | – | – | – | – |
| COC(=O)c1ccccc1C1=C([N+](=O)[O-])C(c2cccc(Br)c2)C(C#N)=C(N)O1 (centres undefined) | > 100 µM | – | > 100 µM | > 100 µM | > 100 µM | 93.3 µM | > 100 µM | 42.7 µM | 61.8 µM | 65.9 µM | – | – | – | – | – | – | – | – | – | – |
| COc1cc([N+](=O)[O-])ccc1N1C(=O)C2c3[nH]c4ccccc4c3C3CCC(C(C)(C)C)CC3C2C1=O (centres undefined) | 34.7 µM | 24.9 µM | > 100 µM | – | > 100 µM | – | > 100 µM | > 100 µM | > 100 µM | > 100 µM | – | – | – | – | – | – | – | – | – | – |
| CCOP(=O)(OCC)C(Nc1cccc(F)c1)c1ccc(N(C)C)cc1 (centres undefined) | > 100 µM | > 100 µM | > 100 µM | > 100 µM | > 100 µM | > 100 µM | > 100 µM | > 100 µM | > 100 µM | > 100 µM | – | – | – | – | – | – | – | – | – | – |
| CN(C)CCCN1c2ccc([N+](=O)[O-])cc2CCc2cc([N+](=O)[O-])ccc21 | 30 µM and 29.3 µM | 29.1 µM | 28.7 µM and 27.4 µM | 32 µM and 29.1 µM | 30 µM and 26.2 µM | 30.2 µM and 29 µM | 30.8 µM and 27.7 µM | 26.3 µM and 28.2 µM | 28.4 µM | 30.8 µM and 32.6 µM | – | – | – | – | – | – | – | – | – | – |
| C[N+](C)(C)CCN[N+]1(C)CCCc2ccccc21 (centres undefined) | > 100 µM | > 100 µM | > 100 µM | > 100 µM | > 100 µM | > 100 µM | > 100 µM | > 100 µM | – | > 100 µM | – | – | – | – | – | – | – | – | – | – |
| CC1(O)COCCCCOc2c(CN)cccc2NC(=O)c2nc(cnc2N)-c2ccc(cc2)S(=O)(=O)C(C)(C)C1 (centres undefined) | 3.47 µM | 2.53 µM | 3.35 µM | 2.74 µM | 1.94 µM | 3.19 µM | 2.47 µM | 3.36 µM | 1.25 µM | 4.02 µM | 1.83 µM | 1.22 µM | 1.76 µM | 1.33 µM | < 0.01 µM | 1.51 µM | 0.408 µM | 1.86 µM | < 0.01 µM | 1.71 µM |
| COC(=O)NC1C(C)OC(OC2C/C=C(/C)C3C=CC4C(OC5CC(OC6CC(OC7CC(O)C(O)C(C)O7)C(OC7CC(O)C(OC)C(C)O7)C(C)O6)C(O)C(C)O5)C(C)CC(C)C4C3(C)/C(O)=C3\C(=O)OC4(CC(C)C(CO)=CC4/C=C\2C)C3=O)CC1(C)[N+](=O)[O-] (centres undefined) | 81.3 µM | 41.1 µM | 57.8 µM | > 100 µM | 4.86 µM | > 100 µM | 20.5 µM | 17.8 µM | 15.9 µM | > 100 µM | – | – | – | – | – | – | – | – | – | – |
| c1ccc([P+](c2ccccc2)(c2ccccc2)c2ccc(-c3ccc([P+](c4ccccc4)(c4ccccc4)c4ccccc4)cc3)cc2)cc1 | > 100 µM | > 100 µM | 63 µM | > 100 µM | > 100 µM | > 100 µM | 63.5 µM | > 100 µM | > 100 µM | > 100 µM | – | – | – | – | – | – | – | – | – | – |
| CCc1ccc2c(c1)C(=O)c1c-2n(CCCN)c(=O)c2cc([N+](=O)[O-])ccc12 | 3.2 µM | 3.11 µM | 3.42 µM | 2.42 µM | 0.504 µM | – | 2.07 µM | 2.83 µM | – | 3.29 µM | 1.68 µM | 1.55 µM | 1.88 µM | 1.17 µM | 0.167 µM | – | 0.452 µM | 1.48 µM | – | 1.62 µM |
| CCCCCCCN(CCCCCCC)CC(O)c1cc2ccccc2c2cc(Br)ccc12 (centres undefined) | > 100 µM | > 100 µM | > 100 µM | > 100 µM | > 100 µM | 54.8 µM | > 100 µM | > 100 µM | > 100 µM | > 100 µM | – | – | – | – | – | – | – | – | – | – |
| CS(=O)(=O)OCCN(CCOS(C)(=O)=O)c1ccc(/C=N/Nc2ncnc3nc[nH]c23)cc1 | 63.4 µM | 32.5 µM | 48.9 µM | > 100 µM | 34.3 µM | 46.1 µM | 65.9 µM | 27.8 µM | > 100 µM | – | – | – | – | – | – | – | – | – | – | – |
